Data taken from ChEMBL document CHEMBL1671634, “Statins alone are ineffective in cerebral malaria but potentiate artesunate” (2008).
Active and inactive are the calls of the source. No cut-off for these calls is given here.

Assays:
Plasmodium falciparum [1] = experiment: Antimalarial activity against Plasmodium falciparum infected in mouse assessed as mouse survival at 20 mg/kg, ip, qd administered 4 days post infection for 3 days measured after 6 days relative to control; assay type: functional, organism-based; parameters: dose 20 mg/kg
Plasmodium falciparum [2] = experiment: Antimalarial activity against Plasmodium falciparum infected in mouse assessed as parasitemia at 20 mg/kg, ip, qd administered 4 days post infection for 3 days measured after 6 days (Rvb =8.7+/-1.4 %); assay type: functional
Plasmodium falciparum [3] = experiment: Antimalarial activity against Plasmodium falciparum infected in mouse assessed as mouse survival at 100 mg/kg, ip, qd administered 5 days post infection for 3 days measured after 6 days relative to control; assay type: functional, organism-based; parameters: dose 100 mg/kg
Plasmodium falciparum [4] = experiment: Antimalarial activity against Plasmodium falciparum infected in mouse assessed as parasitemia at 100 mg/kg, ip, qd administered 5 days post infection for 3 days measured after 6 days (Rvb =8.3+/-1.3 %); assay type: functional
Plasmodium falciparum [5] = experiment: Antimalarial activity against Plasmodium falciparum infected in mouse assessed as mouse survival at 20 mg/kg, ip, qd administered 5 days post infection for 3 days measured after 6 days relative to control; assay type: functional, organism-based; parameters: dose 20 mg/kg
Plasmodium falciparum [6] = experiment: Antimalarial activity against Plasmodium falciparum infected in mouse assessed as parasitemia at 20 mg/kg, ip, qd administered 5 days post infection for 3 days measured after 6 days (Rvb =8.3+/-1.3 %); assay type: functional
Plasmodium falciparum [7] = experiment: Antimalarial activity against Plasmodium falciparum infected in mouse assessed as mouse survival at 40 mg/kg, ip, qd administered 5 days post infection for 3 days measured after 6 days relative to control; assay type: functional, organism-based; parameters: dose 40 mg/kg
Plasmodium falciparum [8] = experiment: Antimalarial activity against Plasmodium falciparum infected in mouse assessed as parasitemia at 200 mg/kg, ip, qd administered 5 days post infection for 3 days measured after 6 days (Rvb =9.9+/-2.2 %); assay type: functional
Plasmodium falciparum [9] = experiment: Antimalarial activity against Plasmodium falciparum infected in mouse assessed as mouse survival at 200 mg/kg, ip, qd administered 5 days post infection for 3 days measured after 6 days relative to control; assay type: functional, organism-based; parameters: dose 200 mg/kg
Plasmodium falciparum [10] = experiment: Antimalarial activity against Plasmodium falciparum infected in mouse assessed as parasitemia at 40 mg/kg, ip, qd administered 5 days post infection for 3 days measured after 6 days (Rvb =9.9+/-2.2 %); assay type: functional
Plasmodium falciparum [11] = experiment: Antimalarial activity against Plasmodium falciparum infected in mouse assessed as mouse survival at 40 mg/kg, ip, qd administered 3 days post infection for 6 days measured after 6 days relative to control; assay type: functional, organism-based; parameters: dose 40 mg/kg
Plasmodium falciparum [12] = experiment: Antimalarial activity against Plasmodium falciparum infected in mouse assessed as parasitemia at 40 mg/kg, ip, qd administered 3 days post infection for 6 days measured after 6 days (Rvb =8.0+/-1.6 %); assay type: functional

For `CC(C)c1c(C(=O)Nc2ccccc2)c(-c2ccccc2)c(-c2ccc(F)cc2)n1CC[C@@H](O)C[C@@H](O)CC(=O)O` [ATORVASTATIN], the Survival (Plasmodium falciparum [1]) was “inactive” and the Activity (Plasmodium falciparum [2]) was 9.5%.

For `CC(C)n1c(/C=C/C(O)CC(O)CC(=O)O)c(-c2ccc(F)cc2)c2ccccc21` (configuration not stated) [FLUVASTATIN], the Survival (Plasmodium falciparum [3]) was “inactive”, the Activity (Plasmodium falciparum [4]) was 7.4% and the Survival (Plasmodium falciparum [5]) was “inactive”. The Activity (Plasmodium falciparum [6]) was 7.4%.

In the case of `CC[C@H](C)C(=O)O[C@H]1C[C@H](O)C=C2C=C[C@H](C)[C@H](CC[C@@H](O)C[C@@H](O)CC(=O)O)[C@H]21` [PRAVASTATIN], the Survival (Plasmodium falciparum [7]) was “inactive”, the Activity (Plasmodium falciparum [8]) was 11.8% and the Survival (Plasmodium falciparum [9]) was “inactive”. For the same molecule, the Activity (Plasmodium falciparum [10]) was 11.5%.

For `CCC(C)(C)C(=O)O[C@H]1C[C@@H](C)C=C2C=C[C@H](C)[C@H](CC[C@@H]3C[C@@H](O)CC(=O)O3)[C@H]21` [SIMVASTATIN], the Survival (Plasmodium falciparum [11]) was “inactive” and the Activity (Plasmodium falciparum [12]) was 8.5%.
